{"source": "the supplement of paper PMC10307832", "test_in_all_cases": "relative viability (nuclei count vs DMSO), 5 days (fraction); higher = more cells survive", "key": {"[1]": {"system": "LC-2-ad", "procedure,_shortened": "(§1)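 Dosing by pin tool came one day after lung cancer cell lines were seeded in 1536-well plates, using either one drug or a fixed anchor-drug dose plus five library-drug doses (not always all listed) in √10 steps. After 5 days, nuclei were counted on 4× images. Relative viability is treated-well nuclei count divided by vehicle-well nuclei count, and values are medians of duplicate plates.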"}, "[2]": {"system": "ChaGo-K-1", "procedure,_shortened": "as §1"}, "[3]": {"system": "NCI-H2228", "procedure,_shortened": "as §1"}, "[4]": {"system": "HCC-78", "procedure,_shortened": "as §1"}, "[5]": {"system": "NCI-H1944", "procedure,_shortened": "as §1"}, "[6]": {"system": "NCI-H2087", "procedure,_shortened": "as §1"}, "[7]": {"system": "LOU-NH91", "procedure,_shortened": "as §1"}, "[8]": {"system": "PC-3 [JPC-3]", "procedure,_shortened": "as §1"}, "[9]": {"system": "NCI-H3122", "procedure,_shortened": "as §1"}, "[10]": {"system": "NCI-H2170", "procedure,_shortened": "as §1"}, "[11]": {"system": "CAL-12T", "procedure,_shortened": "as §1"}, "[12]": {"system": "NCI-H1793", "procedure,_shortened": "as §1"}, "[13]": {"system": "RERF-LC-KJ", "procedure,_shortened": "as §1"}, "[14]": {"system": "HCC-366", "procedure,_shortened": "as §1"}, "[15]": {"system": "LU99A", "procedure,_shortened": "as §1"}, "[16]": {"system": "NCI-H2405", "procedure,_shortened": "as §1"}, "[17]": {"system": "NCI-H1755", "procedure,_shortened": "as §1"}, "[18]": {"system": "NCI-H460", "procedure,_shortened": "as §1"}, "[19]": {"system": "UMC-11", "procedure,_shortened": "as §1"}, "[20]": {"system": "NCI-H1395", "procedure,_shortened": "as §1"}, "[21]": {"system": "NCI-H1651", "procedure,_shortened": "as §1"}}}
{"compound": "CC(=O)O[C@@]12CO[C@@H]1C[C@H](O)[C@@]1(C)C(=O)[C@H](O)C3=C(C)[C@@H](OC(=O)[C@H](O)[C@@H](NC(=O)OC(C)(C)C)c4ccccc4)C[C@@](O)([C@@H](OC(=O)c4ccccc4)[C@H]21)C3(C)C", "note": "[Docetaxel] + Nc1nc2[nH]cc(CCc3ccc(C(=O)N[C@@H](CCC(=O)O)C(=O)O)cc3)c2c(=O)[nH]1 [Pemetrexed] (partner 0.2 µM)", "values": [{"measurement": "relative viability", "setting": "[1]; first compound 0.0002 µM", "value": 0.259}, {"measurement": "relative viability", "setting": "[1]; first compound 0.000632 µM", "value": 0.221}, {"measurement": "relative viability", "setting": "[1]; first compound 0.006325 µM", "value": 0.173}, {"measurement": "relative viability", "setting": "[1]; first compound 0.02 µM", "value": 0.181}, {"measurement": "relative viability", "setting": "[2]; first compound 0.0002 µM", "value": 0.269}, {"measurement": "relative viability", "setting": "[2]; first compound 0.000632 µM", "value": 0.269}, {"measurement": "relative viability", "setting": "[2]; first compound 0.002 µM", "value": 0.276}, {"measurement": "relative viability", "setting": "[2]; first compound 0.006325 µM", "value": 0.268}, {"measurement": "relative viability", "setting": "[2]; first compound 0.02 µM", "value": 0.181}, {"measurement": "relative viability", "setting": "[3]; first compound 0.0002 µM", "value": 0.319}, {"measurement": "relative viability", "setting": "[3]; first compound 0.000632 µM", "value": 0.228}, {"measurement": "relative viability", "setting": "[3]; first compound 0.002 µM", "value": 0.154}, {"measurement": "relative viability", "setting": "[3]; first compound 0.006325 µM", "value": 0.146}, {"measurement": "relative viability", "setting": "[3]; first compound 0.02 µM", "value": 0.11}, {"measurement": "relative viability", "setting": "[4]; first compound 0.0002 µM", "value": 0.892}, {"measurement": "relative viability", "setting": "[4]; first compound 0.000632 µM", "value": 0.868}, {"measurement": "relative viability", "setting": "[4]; first compound 0.002 µM", "value": 0.88}, {"measurement": "relative viability", "setting": "[4]; first compound 0.006325 µM", "value": 0.889}, {"measurement": "relative viability", "setting": "[4]; first compound 0.02 µM", "value": 0.861}, {"measurement": "relative viability", "setting": "[5]; first compound 0.0002 µM", "value": 0.619}, {"measurement": "relative viability", "setting": "[5]; first compound 0.000632 µM", "value": 0.568}, {"measurement": "relative viability", "setting": "[5]; first compound 0.002 µM", "value": 0.521}, {"measurement": "relative viability", "setting": "[5]; first compound 0.006325 µM", "value": 0.248}, {"measurement": "relative viability", "setting": "[5]; first compound 0.02 µM", "value": 0.118}, {"measurement": "relative viability", "setting": "[6]; first compound 0.0002 µM", "value": 0.553}, {"measurement": "relative viability", "setting": "[6]; first compound 0.000632 µM", "value": 0.509}, {"measurement": "relative viability", "setting": "[6]; first compound 0.002 µM", "value": 0.24}, {"measurement": "relative viability", "setting": "[6]; first compound 0.006325 µM", "value": 0.168}, {"measurement": "relative viability", "setting": "[6]; first compound 0.02 µM", "value": 0.104}, {"measurement": "relative viability", "setting": "[7]; first compound 0.0002 µM", "value": 0.373}, {"measurement": "relative viability", "setting": "[7]; first compound 0.000632 µM", "value": 0.367}, {"measurement": "relative viability", "setting": "[7]; first compound 0.002 µM", "value": 0.311}, {"measurement": "relative viability", "setting": "[7]; first compound 0.006325 µM", "value": 0.338}, {"measurement": "relative viability", "setting": "[7]; first compound 0.02 µM", "value": 0.312}, {"measurement": "relative viability", "setting": "[8]; first compound 0.0002 µM", "value": 1.01}, {"measurement": "relative viability", "setting": "[8]; first compound 0.000632 µM", "value": 0.713}, {"measurement": "relative viability", "setting": "[8]; first compound 0.002 µM", "value": 0.513}, {"measurement": "relative viability", "setting": "[8]; first compound 0.006325 µM", "value": 0.265}, {"measurement": "relative viability", "setting": "[8]; first compound 0.02 µM", "value": 0.195}, {"measurement": "relative viability", "setting": "[9]; first compound 0.0002 µM", "value": 0.185}, {"measurement": "relative viability", "setting": "[9]; first compound 0.000632 µM", "value": 0.196}, {"measurement": "relative viability", "setting": "[9]; first compound 0.002 µM", "value": 0.193}, {"measurement": "relative viability", "setting": "[9]; first compound 0.006325 µM", "value": 0.14}, {"measurement": "relative viability", "setting": "[9]; first compound 0.02 µM", "value": 0.111}, {"measurement": "relative viability", "setting": "[10]; first compound 0.0002 µM", "value": 0.26}, {"measurement": "relative viability", "setting": "[10]; first compound 0.000632 µM", "value": 0.257}, {"measurement": "relative viability", "setting": "[10]; first compound 0.002 µM", "value": 0.251}, {"measurement": "relative viability", "setting": "[10]; first compound 0.006325 µM", "value": 0.177}, {"measurement": "relative viability", "setting": "[10]; first compound 0.02 µM", "value": 0.174}, {"measurement": "relative viability", "setting": "[11]; first compound 0.0002 µM", "value": 1.08}, {"measurement": "relative viability", "setting": "[11]; first compound 0.000632 µM", "value": 0.83}, {"measurement": "relative viability", "setting": "[11]; first compound 0.002 µM", "value": 0.241}, {"measurement": "relative viability", "setting": "[11]; first compound 0.006325 µM", "value": 0.272}, {"measurement": "relative viability", "setting": "[11]; first compound 0.02 µM", "value": 0.19}, {"measurement": "relative viability", "setting": "[12]; first compound 0.0002 µM", "value": 0.842}, {"measurement": "relative viability", "setting": "[12]; first compound 0.000632 µM", "value": 0.603}, {"measurement": "relative viability", "setting": "[12]; first compound 0.002 µM", "value": 0.251}, {"measurement": "relative viability", "setting": "[12]; first compound 0.006325 µM", "value": 0.271}, {"measurement": "relative viability", "setting": "[12]; first compound 0.02 µM", "value": 0.188}, {"measurement": "relative viability", "setting": "[13]; first compound 0.0002 µM", "value": 0.375}, {"measurement": "relative viability", "setting": "[13]; first compound 0.000632 µM", "value": 0.342}, {"measurement": "relative viability", "setting": "[13]; first compound 0.002 µM", "value": 0.297}, {"measurement": "relative viability", "setting": "[13]; first compound 0.006325 µM", "value": 0.173}, {"measurement": "relative viability", "setting": "[13]; first compound 0.02 µM", "value": 0.157}, {"measurement": "relative viability", "setting": "[14]; first compound 0.0002 µM", "value": 0.162}, {"measurement": "relative viability", "setting": "[14]; first compound 0.000632 µM", "value": 0.16}, {"measurement": "relative viability", "setting": "[14]; first compound 0.002 µM", "value": 0.0677}, {"measurement": "relative viability", "setting": "[14]; first compound 0.006325 µM", "value": 0.0361}, {"measurement": "relative viability", "setting": "[14]; first compound 0.02 µM", "value": 0.0202}, {"measurement": "relative viability", "setting": "[15]; first compound 0.0002 µM", "value": 0.208}, {"measurement": "relative viability", "setting": "[15]; first compound 0.000632 µM", "value": 0.201}, {"measurement": "relative viability", "setting": "[15]; first compound 0.002 µM", "value": 0.217}, {"measurement": "relative viability", "setting": "[15]; first compound 0.006325 µM", "value": 0.207}, {"measurement": "relative viability", "setting": "[15]; first compound 0.02 µM", "value": 0.19}, {"measurement": "relative viability", "setting": "[16]; first compound 0.0002 µM", "value": 1.01}, {"measurement": "relative viability", "setting": "[16]; first compound 0.000632 µM", "value": 0.754}, {"measurement": "relative viability", "setting": "[16]; first compound 0.002 µM", "value": 0.671}, {"measurement": "relative viability", "setting": "[16]; first compound 0.006325 µM", "value": 0.405}, {"measurement": "relative viability", "setting": "[16]; first compound 0.02 µM", "value": 0.389}, {"measurement": "relative viability", "setting": "[17]; first compound 0.0002 µM", "value": 0.545}, {"measurement": "relative viability", "setting": "[17]; first compound 0.000632 µM", "value": 0.438}, {"measurement": "relative viability", "setting": "[17]; first compound 0.002 µM", "value": 0.453}, {"measurement": "relative viability", "setting": "[17]; first compound 0.006325 µM", "value": 0.367}, {"measurement": "relative viability", "setting": "[17]; first compound 0.02 µM", "value": 0.332}, {"measurement": "relative viability", "setting": "[18]; first compound 0.0002 µM", "value": 0.0551}, {"measurement": "relative viability", "setting": "[18]; first compound 0.000632 µM", "value": 0.0652}, {"measurement": "relative viability", "setting": "[18]; first compound 0.002 µM", "value": 0.0375}, {"measurement": "relative viability", "setting": "[18]; first compound 0.006325 µM", "value": 0.0299}, {"measurement": "relative viability", "setting": "[18]; first compound 0.02 µM", "value": 0.021}, {"measurement": "relative viability", "setting": "[19]; first compound 0.0002 µM", "value": 0.717}, {"measurement": "relative viability", "setting": "[19]; first compound 0.000632 µM", "value": 0.698}, {"measurement": "relative viability", "setting": "[19]; first compound 0.002 µM", "value": 0.325}, {"measurement": "relative viability", "setting": "[19]; first compound 0.006325 µM", "value": 0.256}, {"measurement": "relative viability", "setting": "[19]; first compound 0.02 µM", "value": 0.195}, {"measurement": "relative viability", "setting": "[20]; first compound 0.0002 µM", "value": 0.814}, {"measurement": "relative viability", "setting": "[20]; first compound 0.000632 µM", "value": 0.706}, {"measurement": "relative viability", "setting": "[20]; first compound 0.002 µM", "value": 0.652}, {"measurement": "relative viability", "setting": "[20]; first compound 0.006325 µM", "value": 0.342}, {"measurement": "relative viability", "setting": "[20]; first compound 0.02 µM", "value": 0.246}, {"measurement": "relative viability", "setting": "[21]; first compound 0.0002 µM", "value": 0.443}, {"measurement": "relative viability", "setting": "[21]; first compound 0.000632 µM", "value": 0.593}, {"measurement": "relative viability", "setting": "[21]; first compound 0.002 µM", "value": 0.447}, {"measurement": "relative viability", "setting": "[21]; first compound 0.006325 µM", "value": 0.175}]}
